Results reported in US6664036B1, “Homogeneous single-part color developer per color film processing and method of using same” (priority 2002, dated 2003).

Experiment: Solubility of Color Developing Agents CD-2 and CD-3 free base with co-solvent
Type: physicochemical
Design: unit not given here
Details: free base form, same manner as Example 1
Protocol: The co-solvent shown in TABLE I below were tested for their ability to solubilize KODAK Color Developing Agent CD-4 in free base form, in a solution matrix similar to conventional color developing concentrates. KODAK Color Developing Agent CD-4 was prepared in free base form by neutralizing a saturated solution of KODAK Color Developing Agent CD-4 disulfate salt with a stoichiometric quantity of 45% potassium hydroxide. The resulting mixture was stirred and allowed to separate into two layers, the KODAK Color Developing Agent CD-4 free base oil being in the top layer. The top layer was then drawn off for use in the solubility test.
A solution was prepared containing approximately 90 g/l solution of the various co-solvents using a stock solution containing 233 g/l of potassium carbonate, 84.5 g/l of potassium bicarbonate and 67 g/l of potassium sulfite at pH 10.4. Free acid co-solvents were neutralized with a stoichiometric quantity of 45% potassium hydroxide before the test solution was prepared. KODAK Color Developing Agent CD-4 in free base was then added to each test solution with stirring, and the quantity was monitored by weight until precipitation occurred. Using the final volume of the saturated solution and the amount of color developing agent added, the solubility of the color developing agent was calculated.
The solubility of KODAK Color Developing Agents CD-2 and CD-3 were tested in the same manner described in Example 1 for KODAK Color Developing Agent CD-4.

[1] = co-solvent Diethylene glycol 90 g/l
[2] = co-solvent Sodium Benzoate 85-88 g/l

SMILES | Color Developing Agent Solubility [1] | Color Developing Agent Solubility [2]
CCN(CC)c1ccc(N)c(C)c1.Cl [CD-2, 4-(N,N-diethyl)-2-methylaniline hydrochloride] | <4 | 12
CCN(CCNS(C)(=O)=O)c1ccc(N)c(C)c1.CCN(CCNS(C)(=O)=O)c1ccc(N)c(C)c1.O=S(=O)(O)O.O=S(=O)(O)O.O=S(=O)(O)O [CD-3, 4-(N-ethyl-N-methanesulfonamidoethyl)-2-methylaniline sesquisulfate] | <4 | 66
